pIC50: −log10 of the molar value. The source made the active and inactive calls. The rule behind the calls is not given here.

The species entered for data set [1] is Homo sapiens. Kind of data set: (§1) Inhibition of ROS generation in human PMN after 50 mins by luminol-based chemiluminescence assay. Type of data set: functional.
Data set [2] is described as follows: as §1. Type of data set: functional.
Data set [3] concerns HT-29. Kind of data set: Antiproliferative activity human HT-29 cells after 48 hrs by propidium iodide staining-based fluorescence assay. Type of data set: functional, cell-based. As to conditions: HT-29, 48 h.
For data set [4], the species on record is Mus musculus. The following applies: 20 mg/kg.
Description: Inhibition of chlorpyrifos-induced testicular damage in albino mouse assessed as appearance of cellular vaculations in germinal epithelium at 20 mg/kg, qd administered via oral gavage followed by chlorpyrifos challenge at 30 mins post dose by haematoxylin and eosin staining-based light microscopic analysis
Data set [5] deals with MCF7. Kind of data set: Antiproliferative activity human MCF7 cells after 48 hrs by propidium iodide staining-based fluorescence assay. Type of data set: functional, cell-based. The following applies: MCF7, 48 h.
In data set [6] the target is Serine/threonine-protein kinase B-raf (Mus musculus, UniProt P28028, V600E). Kind of data set: Inhibition of mouse full-length GST-tagged BRAF V600E mutant using recombinant human full length N-terminal His-tagged MEK1 as substrate preincubated for 60 mins followed by substrate addition and measured after 25 mins by ELISA. Background: ELISA stands for enzyme-linked immunosorbent assay.
Sequence of Serine/threonine-protein kinase B-raf (P28028 whole entry, looked up, stated change not applied): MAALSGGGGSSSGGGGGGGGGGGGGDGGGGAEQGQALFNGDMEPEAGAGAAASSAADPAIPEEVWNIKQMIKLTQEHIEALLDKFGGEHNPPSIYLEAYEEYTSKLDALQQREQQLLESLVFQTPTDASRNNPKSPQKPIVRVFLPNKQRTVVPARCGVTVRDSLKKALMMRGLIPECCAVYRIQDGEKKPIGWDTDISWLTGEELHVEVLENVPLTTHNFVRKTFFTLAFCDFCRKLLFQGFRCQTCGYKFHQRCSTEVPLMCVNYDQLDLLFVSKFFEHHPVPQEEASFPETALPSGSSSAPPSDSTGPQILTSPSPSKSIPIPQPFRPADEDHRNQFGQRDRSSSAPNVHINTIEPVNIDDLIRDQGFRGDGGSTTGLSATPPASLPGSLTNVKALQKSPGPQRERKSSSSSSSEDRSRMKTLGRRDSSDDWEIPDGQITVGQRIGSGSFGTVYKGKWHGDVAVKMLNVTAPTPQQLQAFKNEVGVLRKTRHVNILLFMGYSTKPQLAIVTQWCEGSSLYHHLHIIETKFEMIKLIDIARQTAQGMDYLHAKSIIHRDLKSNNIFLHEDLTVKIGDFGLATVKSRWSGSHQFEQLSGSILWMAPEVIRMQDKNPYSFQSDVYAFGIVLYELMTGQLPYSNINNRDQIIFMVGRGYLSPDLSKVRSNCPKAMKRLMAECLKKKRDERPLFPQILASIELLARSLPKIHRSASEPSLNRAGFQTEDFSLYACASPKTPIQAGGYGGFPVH

Data set [7] is described as follows: Cytotoxicity against human MCF10A cells assessed as cell viability at 50 uM after 96 hrs by MTT assay relative to control. Type of data set: cell-based, MCF-10A. The following applies: read-out: Activity. On the technique in general: Formazan colour is commonly taken as a measure of viable cells.
Data set [8] in a line: Antioxidant activity assessed as DPPH radical scavenging activity at 10 uM after 30 mins dark incubation. Type of data set: functional. For orientation: Loss of DPPH colour is used to gauge radical scavenging.
Data set [9] relates to Mus musculus. Kind of data set: Inhibition of chlorpyrifos-induced fibrosis in albino mouse testis assessed as decrease in collagen in interstitium at 20 mg/kg, qd administered via oral gavage followed by chlorpyrifos challenge at 30 mins post dose by masson's trichrome staining-based light microscopic analysis. Type of data set: functional, organism-based.
For data set [10], the species on record is Mus musculus. The following applies: 20 mg/kg. The source holds these as a separate data set.
Description: Inhibition of chlorpyrifos-induced testicular damage in albino mouse assessed as appearance of separated semniferous tubules by narrow interstitium without exudate at 20 mg/kg, qd administered via oral gavage followed by chlorpyrifos challenge at 30 mins post dose by haematoxylin and eosin staining-based light microscopic analysis
The nature of data set [11]: Inhibition of ROS generation in human PMN at 3.13 ug/ml after 50 mins by luminol-based chemiluminescence assay relative to control. Type of data set: functional.
Data set [12] is described as follows: Inhibition of ROS generation in human PMN at 12.5 ug/ml after 50 mins by luminol-based chemiluminescence assay relative to control. Type of data set: functional.
A short description of data set [13]: Antioxidant activity assessed as DPPH radical scavenging activity at 100 uM after 30 mins dark incubation. Type of data set: functional.
In data set [14] the target is Tubulin (Homo sapiens) (UniProt P68371+Q9H4B7+P0DPH7+P68366+Q13509+Q71U36+P04350+Q3ZCM7+P07437+P68363+Q9BQE3+Q6PEY2+Q13885+Q9BVA1+Q9BUF5). Kind of data set: Inhibition of tubulin (unknown origin) polymerization assessed as tubulin assembly rate by fluorescence assay. Type of data set: protein-complex assay.
The test system of data set [15] is PC-3. Kind of data set: Antiproliferative activity human PC3 cells after 48 hrs by propidium iodide staining-based fluorescence assay. As to conditions: PC-3, 48 h. Type of data set: functional, cell-based.
Data set [16] relates to A549. Kind of data set: Antiproliferative activity human A549 cells after 48 hrs by propidium iodide staining-based fluorescence assay. Type of data set: functional, cell-based. As to conditions: A549, 48 h.
Data set [17] relates to Mus musculus. Kind of data set: Inhibition of chlorpyrifos-induced fibrosis in albino mouse testis assessed as thin fibrous capsule at 20 mg/kg, qd administered via oral gavage followed by chlorpyrifos challenge at 30 mins post dose by masson's trichrome staining-based light microscopic analysis. Type of data set: functional, organism-based.
The species entered for data set [18] is Mus musculus. The following applies: 20 mg/kg. This is another data set of the same source.
Description: Inhibition of chlorpyrifos-induced testicular damage in albino mouse assessed as absence of sloughed cells at 20 mg/kg, qd administered via oral gavage followed by chlorpyrifos challenge at 30 mins post dose by haematoxylin and eosin staining-based light microscopic analysis
The species entered for data set [19] is Mus musculus. The following applies: 20 mg/kg. This is another data set of the same source.
Description: Inhibition of chlorpyrifos-induced testicular damage in albino mouse assessed as appearance of vesicular nuclei in spermatogenic cells at 20 mg/kg, qd administered via oral gavage followed by chlorpyrifos challenge at 30 mins post dose by haematoxylin and eosin staining-based light microscopic analysis
Data set [20] can be described thus: Inhibition of ROS generation in human PMN at 0.78 ug/ml after 50 mins by luminol-based chemiluminescence assay relative to control. Type of data set: functional.
The nature of data set [21]: Antioxidant activity assessed as DPPH radical scavenging activity at 50 uM after 30 mins dark incubation. Type of data set: functional.
A short description of data set [22]: Inhibition of ROS generation in human PMN at 1.56 ug/ml after 50 mins by luminol-based chemiluminescence assay relative to control. Type of data set: functional.
In data set [23] the test system is MIA PaCa-2. Kind of data set: Antiproliferative activity human MIAPaCa2 cells after 48 hrs by propidium iodide staining-based fluorescence assay. Type of data set: functional, cell-based. The following applies: MIA PaCa-2, 48 h.
The species named for data set [24] is Mus musculus. As to conditions: 20 mg/kg. The source holds these as a separate data set.
Description: Inhibition of chlorpyrifos-induced testicular damage in albino mouse assessed as appearance of spermatozoa tails in narrow lumina at 20 mg/kg, qd administered via oral gavage followed by chlorpyrifos challenge at 30 mins post dose by haematoxylin and eosin staining-based light microscopic analysis
Data set [25] concerns Mus musculus. Kind of data set: Inhibition of chlorpyrifos-induced iNOS epression in albino mouse testes at 20 mg/kg, qd administered via oral gavage followed by chlorpyrifos challenge at 30 mins post dose by immunohistochemical analysis. Type of data set: functional, organism-based.
Data set [26] is described as follows: Inhibition of ROS generation in human PMN at 6.25 ug/ml after 50 mins by luminol-based chemiluminescence assay relative to control. Type of data set: functional.
In data set [27] the test system is Mus musculus. Kind of data set: Inhibition of chlorpyrifos-induced caspase3 epression in albino mouse testes at 20 mg/kg, qd administered via oral gavage followed by chlorpyrifos challenge at 30 mins post dose by immunohistochemical analysis. Type of data set: functional, organism-based.
Data set [28] has as its system Mus musculus. Kind of data set: Inhibition of chlorpyrifos-induced testicular damage in albino mouse assessed as increase in spermatogenic cell layers at 20 mg/kg, qd administered via oral gavage followed by chlorpyrifos challenge at 30 mins post dose by haematoxylin and eosin staining-based light microscopic analysis. Type of data set: functional, organism-based.

Data set [29] concerns MCF7. Kind of data set: Growth inhibition of human MCF7 cells after 48 hrs by SRB assay. Type of data set: functional. The following applies: MCF7, 48 h.
Data set [30] deals with MDA-MB-435. Kind of data set: Growth inhibition of human MDA-MB-435 cells after 48 hrs by SRB assay. Type of data set: functional. The following applies: MDA-MB-435, 48 h.
Data set [31] addresses Epidermal growth factor receptor (Homo sapiens, UniProt P00533). Kind of data set: Inhibition of His6-tagged EGFR (unknown origin) cytoplasmic domain expressed in baculovirus infected Sf9 insect cells after 10 mins followed by addition of ATP-MgCl2 and measured after 1 hr by time-resolved fluorometric analysis.
The test system of data set [32] is Mus musculus. Kind of data set: Inhibition of chlorpyrifos-induced testicular damage in albino mouse assessed as appearance of normal sertoli cells at 20 mg/kg, qd administered via oral gavage followed by chlorpyrifos challenge at 30 mins post dose by haematoxylin and eosin staining-based light microscopic analysis. Type of data set: functional, organism-based.

For data set [33], the system named is Mus musculus. Kind of data set: Inhibition of chlorpyrifos-induced testicular damage in albino mouse assessed as appearance of spermatozoa tails in lumina at 20 mg/kg, qd administered via oral gavage followed by chlorpyrifos challenge at 30 mins post dose by haematoxylin and eosin staining-based light microscopic analysis. Type of data set: functional, organism-based.

The subject of data set [34] is Mus musculus. Kind of data set: Inhibition of chlorpyrifos-induced testicular damage in albino mouse assessed as appearance of well-organized spermatogenic layers at different stages of spermatogenesis at 20 mg/kg, qd administered via oral gavage followed by chlorpyrifos challenge at 30 mins post dose by haematoxylin and eosin staining-based light microscopic analysis. Type of data set: functional, organism-based.

The test system of data set [35] is Mus musculus. Kind of data set: Inhibition of chlorpyrifos-induced testicular damage in albino mouse assessed as absence of crowdedness of interstitial cells with relatively low exudate at 20 mg/kg, qd administered via oral gavage followed by chlorpyrifos challenge at 30 mins post dose by haematoxylin and eosin staining-based light microscopic analysis. Type of data set: functional, organism-based.

Sequence of Epidermal growth factor receptor (P00533 whole entry, the tested form may be a part): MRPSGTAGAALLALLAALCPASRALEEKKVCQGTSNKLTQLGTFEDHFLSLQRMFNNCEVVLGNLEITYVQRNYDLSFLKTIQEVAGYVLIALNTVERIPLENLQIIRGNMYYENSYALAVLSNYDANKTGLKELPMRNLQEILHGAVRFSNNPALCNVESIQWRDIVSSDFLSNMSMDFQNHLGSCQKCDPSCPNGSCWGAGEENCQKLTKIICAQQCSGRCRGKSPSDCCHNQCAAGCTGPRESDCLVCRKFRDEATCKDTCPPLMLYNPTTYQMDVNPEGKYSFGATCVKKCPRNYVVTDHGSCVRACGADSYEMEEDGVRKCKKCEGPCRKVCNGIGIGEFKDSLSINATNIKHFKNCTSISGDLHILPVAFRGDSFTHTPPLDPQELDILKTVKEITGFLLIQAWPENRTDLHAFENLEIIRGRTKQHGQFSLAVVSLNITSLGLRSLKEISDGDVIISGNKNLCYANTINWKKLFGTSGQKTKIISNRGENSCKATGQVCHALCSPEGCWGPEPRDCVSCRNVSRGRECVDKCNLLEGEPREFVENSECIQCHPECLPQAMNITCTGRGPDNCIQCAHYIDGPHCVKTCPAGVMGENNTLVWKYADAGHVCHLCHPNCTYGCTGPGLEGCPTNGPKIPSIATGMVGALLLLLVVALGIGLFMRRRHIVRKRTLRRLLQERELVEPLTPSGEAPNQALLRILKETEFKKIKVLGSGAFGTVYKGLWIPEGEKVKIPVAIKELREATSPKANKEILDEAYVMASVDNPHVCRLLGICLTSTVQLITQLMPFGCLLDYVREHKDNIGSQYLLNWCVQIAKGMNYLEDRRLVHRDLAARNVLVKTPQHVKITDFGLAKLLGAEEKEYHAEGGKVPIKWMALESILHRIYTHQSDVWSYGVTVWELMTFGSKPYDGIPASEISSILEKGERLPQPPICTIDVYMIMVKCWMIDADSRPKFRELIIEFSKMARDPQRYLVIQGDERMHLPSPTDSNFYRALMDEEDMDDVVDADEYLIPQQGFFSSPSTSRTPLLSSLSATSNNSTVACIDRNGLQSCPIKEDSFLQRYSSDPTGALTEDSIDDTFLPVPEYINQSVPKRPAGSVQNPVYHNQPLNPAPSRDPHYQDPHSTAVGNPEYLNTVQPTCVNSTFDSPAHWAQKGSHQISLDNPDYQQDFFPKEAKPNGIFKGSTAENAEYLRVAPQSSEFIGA

`Cc1c2cc(Cl)ccc2n2cc(Cc3ccccc3)[nH]c(=O)c12`: the inhibition (as a rule, the drop in the measured response relative to a control, in per cent) in [1] is “Dose-dependent effect”. Also, the pIC50 – broadly, −log10 of the IC50, conventionally taken in molar units – in [2] is 5.83; in data set [3], 6.22; in [5], 7.00; in data set [6], 7.00; in data set [15], 6.05; in data set [16], 6.10. In data set [23], the pIC50 is 6.52. For the same molecule, the inhibition result in data set [4], in data set [9], in data set [10], in data set [17], in [18] and in data set [19] was “Active” throughout. The inhibition entry in [24], in data set [25], in [27] and in [28] was “Active” in each case. Also, the viability at 96 h, 50 µM in data set [7] came out at 91%. Moreover, the Activity was found to be 72.3% in [8], 97.7% in [13], 650 a.u in data set [14] and 85.4% in data set [21]. Besides, in data set [11], the inhibition at 3.13 µg/mL is 72%. Besides, at 12.5 µg/mL the inhibition in data set [12] was 91%. In data set [20], the inhibition at 0.78 µg/mL came out at 55%. 1.56 µg/mL produced 60% inhibition in data set [22]. The molecule further came in with an inhibition at 6.25 µg/mL in data set [26] of 85%.
Take `Cc1ccc(S(=O)(=O)N2c3ccccc3CC2c2nc(Br)cnc2N)cc1` (stereo unspecified): the values for the GI50 in data set [29] and in data set [30] were 820 nM and 290 nM, respectively.
Turning to `Cc1c(C(=O)NC(CO)Cc2ccccc2)[nH]c2ccc(Cl)cc12` (stereo unspecified), the inhibition result in data set [1] was “Dose-dependent effect”. Moreover, the pIC50 in data set [2] was 5.23; in data set [3], 5.54; in [5] it was 5.55; in [6], 5.43; in data set [31], 6.30; in [15] it was 5.60. Moreover, the values for the pIC50 in data set [16] and in [23] were 5.54 and 5.59, respectively. Also, the viability at 96 h, 50 µM in [7] was found to be 90%. The Activity in [8] worked out at 55.4%; in [13] it was 86.4%; in data set [14], 2570 a.u; in data set [21] it was 72.7%. The molecule also had an inhibition at 3.13 µg/mL in data set [11] of 58%. Moreover, 12.5 µg/mL produced 74% inhibition in data set [12]. In addition, the inhibition at 0.78 µg/mL in [20] is 39%. The molecule further had an inhibition at 1.56 µg/mL in data set [22] of 45%. This molecule showed an inhibition at 6.25 µg/mL in [26] of 65%.
Consider `O=c1[nH]c(Cc2ccccc2)cn2c1cc1cc(Cl)ccc12`, for which the inhibition result in [1] is “Dose-dependent effect”. Also, the pIC50 in data set [2] is 5.47; in data set [3] it was 6.05; in [5], 6.05; in data set [6] it was 6.00; in data set [31] it was 5.62; in data set [15] it was 5.89. The pIC50 in data set [16] was 5.92; in [23] it was 5.74. Further, the inhibition result in [32], in [33], in data set [9], in data set [34], in [35] and in data set [17] was “Active” in each case. The inhibition entry in data set [25], in data set [27] and in data set [28] was “Active” throughout. Besides, in data set [7], the viability at 96 h, 50 µM turned out to be 89%. The Activity in data set [8] was found to be 69.4%; in data set [13], 91.4%; in [14] it was 930 a.u; in data set [21], 79.6%. The molecule further displayed an inhibition at 3.13 µg/mL in data set [11] of 64%. In data set [12], this molecule showed an inhibition at 12.5 µg/mL of 81%. The molecule further showed an inhibition at 0.78 µg/mL in [20] of 47%. Moreover, in data set [22], the inhibition at 1.56 µg/mL was 55%. The molecule further had an inhibition at 6.25 µg/mL in data set [26] of 72%.
On to `CCc1c2cc(C(F)(F)F)ccc2n2cc(Cc3ccccc3)[nH]c(=O)c12`, for which, in [1], the inhibition entry is “Dose-dependent effect”. In addition, the pIC50 in data set [2] was 5.19; in data set [3], 6.05; in data set [5], 6.05; in [6], 6.05; in [31] it was 5.41; in [15], 6.00. Further, the pIC50 is 5.85 in data set [16] and 5.96 in data set [23]. In addition, the viability at 96 h, 50 µM in [7] came out at 79%. For the same molecule, the Activity in data set [8] amounted to 52.2%; in data set [13], 84.4%; in data set [14] it was 1920 a.u; in data set [21] it was 72.9%. This molecule also showed an inhibition at 3.13 µg/mL in [11] of 56%. In data set [12], this molecule displayed an inhibition at 12.5 µg/mL of 89%. In addition, in data set [20], testing at 0.78 µg/mL gave an inhibition of 31%. In addition, testing at 1.56 µg/mL in data set [22] gave an inhibition of 42%. Moreover, the inhibition at 6.25 µg/mL in [26] was 72%.
